Measured values reported in patent US7405037B2, “Methods and tools for detecting collagen degradation” (Lonza Walkersville, Inc., priority 2004, dated 2008).
Blank lines part the entries; values can stand above or below the molecule they belong to. No end group written: not given here.

How the values were obtained:
[1] = tested on: primary human osteoclasts; assay: OsteoLyse assay: release of europium chelate-labeled collagen fragments by osteoclasts; type: cell-based; parameters: inhibition of bone matrix degradation: dose or concentration left out as unconfirmed
Description: Remove a 96-well cell culture plate to which europium chelate-labeled collagen (e.g., collagen labeled with Eu^3+-N′-(p-isothiocyanatobenzyl) diethylenetriamine-N^1,N^2,N^3-tetraacetic acid) is covalently bound from 4° C. storage and let it warm to room temperature. Seed mature osteoclasts or osteoclast precursors (human or non-human) onto the cell culture plate in medium containing M-CSF and soluble RANK ligand. If using Cambrex's primary human osteoclast precursors (Poietics™ Human Osteoclast Precursors), seed the cells at a density of 10,000 cells/well in osteoclast precursor differentiation medium (Cambrex product # PT-8001). See Example 2 for a detailed protocol for the culture of primary human osteoclast precursors (Cambrex product # 2T-110). Precursors cultured in the absence of soluble RANK ligand can serve as “undifferentiated” controls.
Culture the cells for 6 days and then renew the cell culture medium. Fresh medium preferably contains the same concentrations of M-CSF and soluble RANK ligand as in the original day 0 medium. Unused control and differentiation media from day 0 can be frozen (on day 0) and used for the day 6 medium changes.
At least two different types of protocols can be used. If the assay is used to measure the effect of a test compound on differentiation of the osteoclast precursor, the test compound typically is added at day 0 and removed at day 6. However, if the assay is used to measure the effect of a test compound on mature osteoclast function (i.e., bone matrix collagen degradation), the test compound typically is added at day 6 with the new medium addition.
The cell culture medium can be sampled at any time after the medium change. Because a very small volume (5 to 10 μl) of medium is sampled, it is very easy to do time-course studies by repeatedly sampling the medium on sequential days. Medium volumes greater than 10 μl are unnecessary and, because an excess of fluorophore releasing reagent with respect to sample is desired, actually may lead to inefficient counting of the fluorophore as the ratio of fluorophore releasing reagent to sample decreases. […]
Determine the fluorescence of each well of the assay vessel in a time-resolved fluorescence fluorimeter (e.g., a Wallac Victor, with excitation at 340 nm and emission at […]) over a […] time period after an initial delay of 400 μseconds.
Primary human osteoclast precursors were seeded onto europium chelate-labeled collagen covalently bound to a maleic anhydride-derivatized polystyrene plate (Pierce Reacti-Bind™) at 10,000 cells/well and cultured in differentiation medium containing (1) no calcitonin, (2) calcitonin added only at day 5, or (3) calcitonin added on both days 0 and 5. Ten μl samples of culture media were counted after a total of 6 days. […]

[2] = tested on: primary human osteoclast precursors; assay: TRAP stain (multinucleated TRAP-positive cells/well); type: cell-based
Description: Primary human osteoclast precursors were seeded onto europium chelate-labeled collagen covalently bound to a maleic anhydride-derivatized polystyrene plate at 10,000 cells/well and cultured in medium containing soluble RANK ligand with and without interferon γ. After 9 days, cell culture media were assayed for fluorescent collagen peptides as described in Example 1. Cells in the plate were subsequently stained for TRAP (Sigma # 386-A).
In another experiment, osteoclast precursors were cultured in differentiation medium with and without different concentrations of alendronate. After 7 days the media were renewed and, after an additional 3 days, the cell culture media were sampled as described in Example 1. Cells in the plate were subsequently stained for TRAP (Sigma # 386-A).

osteoclast precursors = assay: Osteoclast-mediated degradation of covalently bound FITC-labeled collagen (DQ collagen); type: cell-based, human; settings: 1 ng/ml; days 5, 7 and 9 of culture; FITC-labeled bovine type I collagen
Description: FITC-labeled bovine type I collagen (DQ collagen, Molecular Probes, Inc.) was covalently bound to the surface of a maleic anhydride-derivatized 96-well tissue culture plate. Osteoclast precursors were cultured, with and without differentiation, in the plate as described in Example 2. Interferon γ (1 ng/ml) was added to some wells. At days 5, 7 and 9 of culture, 10 μl samples of each well were collected and added to 200 μl phosphate-buffered saline and counted in a fluorimeter (485/535 nm).

[3] = 9 days of culture, medium with soluble RANK ligand

Molecule: calcitonin (CGNLSTCMLGTYTQDFNKFHTFPQTAIGVGAP; ends and bridges not checked; cysteine pairing not given here; UniProt P01258 85-116, looked up)
effect on resorptive activity of the osteoclasts ([1]; calcitonin added on days 0 and 5 (prior exposure on day 0)): little effect
inhibition of bone matrix degradation ([1]; calcitonin for 24 hours (added day 5 of culture), counted after 6 days): 88%

IC50, percent inhibition relative to controls, TRAP assay [2, 3]: approximately 0.1 ng/ml
IC50, percent inhibition relative to controls, OsteoLyse assay [1, 3]: approximately 0.1 ng/ml
Molecule: interferon γ [cytokine added to osteoclast precursor cultures]
inhibition of osteoclast-mediated collagen degradation (osteoclast precursors): completely inhibited

IC50 ([1]; Osteoclast, OsteoLyse assay, primary human osteoclasts, read-out: IC50, in vitro inhibition of bone resorption): ~2000 nM
Molecule: NCCCC(O)(P(=O)(O)O)P(=O)(O)O [alendronate]
inhibition of differentiation of osteoclast precursors (multinucleated TRAP-positive osteoclasts) ([2]; different concentrations, medium renewed after 7 days, 3 additional days): did not inhibit
